From patent US10059709B2, “Compounds” (Elanco Tiergesundheit AG, priority 2014, dated 2018)

Key:
Assay type in all cases: biochemical
[1] = molecular target: GST-JAK3(811-1124) (Homo sapiens (Human), UniProt P52333); experiment: Caliper mobility shift kinase assay, JAK3; conditions: JAK3tide 2 μM, ATP 80 or 18 μM, 60 minutes at 30° C.
Source text: (§1) Measurement of the Effect on the JAK Enzyme
(§2) All four kinases of the JAK/TYK-kinase family were used as purified recombinant GST-fusion proteins, containing the active kinase domains. GST-JAK1(866-1154), GST-JAK3(811-1124), and GST-TYK2(888-1187) were expressed and purified by affinity chromatography at the EPK biology unit.
(§3) The kinase assays were based on the Caliper mobility shift assay using the LabChip 3000 systems. This technology is similar to capillary electrophoresis and uses charge driven separation of substrate and product in a microfluidic chip.
(§4) All kinase reactions were performed in 384 well microtiter plates in a total reaction volume of
18 μI. The assay plates were prepared with 0.1 μI per well of test compound in the appropriate test concentration, as described under the section “preparation of compound dilutions”. The reactions were started by combining 9 μI of substrate mix (consisting of peptide and ATP) with 9 μI of kinase dilution. The reactions were incubated for 60 minutes at 30° C. and stopped by adding 70 μI of stop buffer (100 mM Hepes, 5% DMSO, 0.1% Coating reagent, 10 mM EDTA, 0.015% Brij 35).
Fluorescently labeled synthetic peptides were used as substrates in all reactions. A peptide derived from the sequence of IRS-1 (IRS-1 peptide, FITC-Ahx-[…]-NH2) was used for JAK1 and TYK2 and a peptide named JAK3tide (FITC-[…]-NH2) for JAK3. Specific assay conditions are described in Table 4:
(§5) The terminated reactions were transferred to the Caliper LabChip 3000 reader and the turnover of each reaction was measured by determining the substrate/product ratio.
(§6) Preparation of Compound Dilutions
(§7) Test compounds were dissolved in DMSO (10 mM) and transferred into 1.4 mL flatbottom or V-shaped Matrix tubes carrying a unique 2D matrix chip by individual compound hubs. The numbers of these chips were distinctively linked to the individual compound identification numbers. The stock solutions were stored at −20° C. if not used immediately. For the test procedure the vials were defrosted and identified by a scanner whereby a working sheet was generated that guided the subsequent working steps. Compound dilutions were made in 96 well plates. This format enabled the assay of maximally 40 individual test compounds at 8 concentrations (single points) including 4 reference compounds. The dilution protocol included the production of pre-dilution plates, master plates and assay plates:
(§8) Pre-dilution plates: 96 polypropylene well plates were used as pre-dilution plates. A total of 4 pre-dilution plates were prepared including 10 test compounds each on the plate positions A1-A10, one standard compound at A11 and one DMSO control at A12. All dilution steps were done on a HamiltonSTAR robot.
(§9) Master plates: 100 μI of individual compound dilutions including standard compound and controls of the 4 “pre-dilution plates” were transferred into a 384 “master plate” including the following concentrations 1′820, 564, 182, 54.6, 18.2, 5.46, 1.82 and 0.546 μM, respectively in 90% of DMSO.
Assay plates: Identical assay plates were then prepared by pipetting 100 nL of compound dilutions of the master plates into 384-well “assay plates”. In the following the compounds were mixed with 9 μI of assays components plus 9 μI enzyme corresponding to a 1:181 dilution steps enabling the final concentration of 10, 3.0, 1.0, 0.3, 0.1, 0.03, 0.01 and 0.003 μM, respectively. The preparation of the master plates were handled by the Matrix PlateMate Plus robot and replication of assay plates by the HummingBird robot.

[2] = molecular target: GST-TYK2(888-1187) (Homo sapiens (Human), UniProt P29597); experiment: Caliper mobility shift kinase assay, TYK2; conditions: IRS-1 peptide 5 μM, ATP 30 μM, 60 minutes at 30° C.
Source text: as §1, §2, §3, §4
(§10) 18 μI. […] The reactions were started by combining 9 μI of substrate mix (consisting of peptide and ATP) with 9 μI of kinase dilution. The reactions were incubated for 60 minutes at 30° C. and stopped by adding 70 μI of stop buffer (100 mM Hepes, 5% DMSO, 0.1% Coating reagent, 10 mM EDTA, 0.015% Brij 35).
(§11) Fluorescently labeled synthetic peptides were used as substrates in all reactions. […] Specific assay conditions are described in Table 4:
as §5, §6, §7, §8, §9
(§12) Assay plates: Identical assay plates were then prepared by pipetting 100 nL of compound dilutions of the master plates into 384-well “assay plates”. […] The preparation of the master plates were handled by the Matrix PlateMate Plus robot and replication of assay plates by the HummingBird robot.

[3] = molecular target: GST-JAK1(866-1154) (Homo sapiens (Human), UniProt P23458); experiment: Caliper mobility shift kinase assay, JAK1; conditions: IRS-1 peptide 5 μM, ATP 40 μM, 60 minutes at 30° C.
Source text: as §1, §2, §3, §4, §10, §11, §5, §6, §7, §8, §9, §12

Chain of GST-JAK1(866-1154) (P23458 866-1154): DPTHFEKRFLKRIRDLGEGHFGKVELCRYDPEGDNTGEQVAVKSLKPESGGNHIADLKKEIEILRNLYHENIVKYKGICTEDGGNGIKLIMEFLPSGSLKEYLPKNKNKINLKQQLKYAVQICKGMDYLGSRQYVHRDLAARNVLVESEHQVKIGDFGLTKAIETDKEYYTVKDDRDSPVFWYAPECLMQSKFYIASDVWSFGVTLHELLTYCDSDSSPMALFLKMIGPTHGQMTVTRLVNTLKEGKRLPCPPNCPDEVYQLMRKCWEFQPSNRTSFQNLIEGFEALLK
Chain of GST-JAK3(811-1124) (P52333 811-1124): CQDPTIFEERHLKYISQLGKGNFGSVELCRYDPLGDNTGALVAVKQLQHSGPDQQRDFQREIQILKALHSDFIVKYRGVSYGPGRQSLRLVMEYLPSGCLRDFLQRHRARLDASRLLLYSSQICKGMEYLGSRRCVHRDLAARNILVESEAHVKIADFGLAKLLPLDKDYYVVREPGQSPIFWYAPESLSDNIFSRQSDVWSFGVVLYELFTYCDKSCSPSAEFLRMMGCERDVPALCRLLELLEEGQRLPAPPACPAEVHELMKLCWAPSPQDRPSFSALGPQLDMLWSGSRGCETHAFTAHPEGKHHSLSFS
Chain of GST-TYK2(888-1187) (P29597 888-1187): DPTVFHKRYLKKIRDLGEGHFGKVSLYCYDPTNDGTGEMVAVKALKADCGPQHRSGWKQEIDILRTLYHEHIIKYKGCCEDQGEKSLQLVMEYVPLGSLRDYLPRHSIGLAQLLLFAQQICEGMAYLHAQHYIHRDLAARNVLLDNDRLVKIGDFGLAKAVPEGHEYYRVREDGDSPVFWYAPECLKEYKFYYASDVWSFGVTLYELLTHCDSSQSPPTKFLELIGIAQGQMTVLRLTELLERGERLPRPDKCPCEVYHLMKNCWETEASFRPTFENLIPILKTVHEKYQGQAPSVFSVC

Row | SMILES | IC50 [1] [µM] | IC50 [2] [µM] | IC50 [3] [µM]
1 | CNS(=O)(=O)C[C@H]1CC[C@H](Nc2nc(N)ncc2Br)CC1 [compound 13] | > 10 | 6 | 
2 | CNS(=O)(=O)C[C@H]1CC[C@H](N(C)c2ncnc3[nH]c(Cc4ccccc4)nc23)CC1 [compound 5] | > 10 | > 10 | > 10
3 | CNS(=O)(=O)C[C@H]1CC[C@H](Nc2c(C#N)cnn3cccc23)CC1 [compound 27] | > 10 |  | 1.8
4 | CNS(=O)(=O)C[C@H]1CC[C@H](Nc2ncnn3cccc23)CC1 [compound 15] | > 10 | > 10 | > 10
5 | CNS(=O)(=O)C[C@H]1CC[C@H](N(C)c2nc(N)ncc2-c2ccccc2)CC1 [compound 21] | > 10 | > 10 | > 10
6 | CNS(=O)(=O)C[C@H]1CC[C@H](Nc2c(C#N)cnc3sccc23)CC1 [compound 14] | > 10 | > 10 | > 10
7 | CNS(=O)(=O)C[C@H]1CC[C@H](N(C)c2ncnc3[nH]cnc23)CC1 [compound 2, N-methyl-1-[trans-4-[methyl(9H-purin-6-yl)amino]cyclohexyl]methanesulfonamide] | 1.89 | 4.59 | 0.582
8 | CNS(=O)(=O)C[C@H]1CC[C@H](N(C)c2c(C#N)cnc3[nH]ccc23)CC1 [compound 26, 1-[trans-4-[(5-cyano-1H-pyrrolo[2,3-b]pyridin-4-yl)-methyl-amino]cyclohexyl]-N-methyl-methanesulfonamide] | 3 | 0.84 | 0.034
9 | CNS(=O)(=O)C[C@H]1CC[C@H](N(C)c2ncnc3[nH]ncc23)CC1 [compound 3] | > 10 | > 10 | > 10
10 | CNS(=O)(=O)C[C@H]1CC[C@H](N(C)c2nc(N)ncc2Br)CC1 [compound 7] | > 10 | > 10 | > 10
11 | CNS(=O)(=O)C[C@H]1CC[C@H](Nc2ccnc(N)n2)CC1 [compound 11] | > 10 | > 10 | > 10
12 | CNS(=O)(=O)C[C@H]1CC[C@H](N(C)c2ncnc3[nH]c(C)nc23)CC1 [compound 1] | 7.93 |  | 
13 | CNS(=O)(=O)C[C@H]1CC[C@H](N(C)c2c([N+](=O)[O-])cnc3[nH]ccc23)CC1 [compound 18] | 1.2 | 0.39 | 
14 | CNS(=O)(=O)C[C@H]1CC[C@H](Oc2c([N+](=O)[O-])cnc3[nH]ccc23)CC1 [compound 25, N-methyl-1-[trans-4-[(5-nitro-1H-pyrrolo[2,3-b]pyridin-4-yl)oxy]cyclohexyl]methanesulfonamide] | 3.6 |  | 0.071
15 | CNS(=O)(=O)C[C@H]1CC[C@H](N(C)c2ncnn3cccc23)CC1 [compound 28] | > 10 | 3.2 | 0.55
16 | CNS(=O)(=O)C[C@H]1CC[C@H](N(C)c2ncnc3[nH]c(-c4ccccc4)nc23)CC1 [compound 4] | > 10 | > 10 | > 10
17 | CNS(=O)(=O)C[C@H]1CC[C@H](Nc2nc(N)ncc2C)CC1 [compound 12] | > 10 | > 10 | > 10
18 | CNS(=O)(=O)C[C@H]1CC[C@H](N(C)c2ccnc(N)n2)CC1 [compound 16] | > 10 | > 10 | > 10
19 | CNS(=O)(=O)C[C@H]1CC[C@H](n2cnc3cnc4[nH]ccc4c32)CC1 [compound 22, 1-[trans-4-(imidazo[4,5-d]pyrrolo[2,3-b]pyridin-1(6H)-yl)cyclohexyl]-N-methylmethanesulfonamide] | 0.26 | 0.13 | 0.01
20 | CNS(=O)(=O)C[C@H]1CC[C@H](N(C)c2c(C#N)cnc3sccc23)CC1 [compound 17] | > 10 | > 10 | > 10
21 | CNS(=O)(=O)C[C@H]1CC[C@H](Nc2nc(N)ncc2-c2ccccc2)CC1 [compound 23] | > 10 | > 10 | > 10
22 | CNS(=O)(=O)C[C@H]1CC[C@H](N(C)c2ncnc3sccc23)CC1 [compound 9] | > 10 | > 10 | > 10
23 | CNS(=O)(=O)C[C@H]1CC[C@H](N(C)c2c(C#N)cnn3cccc23)CC1 [compound 24] | > 10 | 8.5 | 0.93
24 | CNS(=O)(=O)C[C@H]1CC[C@H](Oc2c(C#N)cnc3sccc23)CC1 [compound 20] | > 10 | > 10 | > 10
25 | CNS(=O)(=O)C[C@H]1CC[C@H](Oc2ncnn3cccc23)CC1 [compound 6] | > 10 | > 10 | > 10
26 | CNS(=O)(=O)C[C@H]1CC[C@H](Nc2ncnc3sccc23)CC1 [compound 8] | > 10 | > 10 | > 10
27 | CNS(=O)(=O)C[C@H]1CC[C@H](Oc2ncnc3sccc23)CC1 [compound 19] | > 10 | > 10 | > 10
28 | CNS(=O)(=O)C[C@H]1CC[C@H](N(C)c2cc(Cl)nc(N)n2)CC1 [compound 10] | > 10 | > 10 | > 10
